*1 amine or outer side, *2 acyl side, *3 side chain or, on linkers, in order; H or OH if unused. Where a SMILES comes first, the peptide text is derived from it. Side-chain parts run from the residue outwards. [ ]: non-standard residue; d: D form. The star is where a group is joined. Isobutyryl(2-(3-CN-5-F-Ph)) = CC(C)(C(=O)*)c1cc(F)cc(C#N)c1; C20 diacid = O=C(O)CCCCCCCCCCCCCCCCCCC(=O)*; αMePhe(2-F) = C[C@](N)(Cc1ccccc1F)C(=O)O; γGlu = O=C(O)[C@H](CCC(=O)[*:2])N[*:1]; X62 = O=C(C1(c2cccc(Cl)c2)CCCC1)*; X3 = CC(C)(C(=O)*)c1ccc(Cl)cc1; X2 = CC(C)(C(=O)*)c1cccc(F)c1; X4 = O=C(C(F)(F)c1ccc(F)cc1)*; AEEA = NCCOCCOCC(=O)O; Aib = CC(C)(N)C(=O)O; βAla = NCCC(=O)O
Experiments:
Format in all cases: cell-based
GIP receptor [1] = molecular target: T1, GIP receptor (Homo sapiens, UniProt P48546); assay: PathHunter β-arrestin assay, GIP receptor; set-up: host or cells: PathHunter CHO-K1 GIPR β-Arrestin Cell Line; settings: β-arrestin-2 recruitment, PathHunter CHO-K1 GIPR β-Arrestin Cell Line, 90 min at 37° C.; normalized to GIP; read-out: GIPR β Arrestin EC50
T1 sequence (P48546 22-466): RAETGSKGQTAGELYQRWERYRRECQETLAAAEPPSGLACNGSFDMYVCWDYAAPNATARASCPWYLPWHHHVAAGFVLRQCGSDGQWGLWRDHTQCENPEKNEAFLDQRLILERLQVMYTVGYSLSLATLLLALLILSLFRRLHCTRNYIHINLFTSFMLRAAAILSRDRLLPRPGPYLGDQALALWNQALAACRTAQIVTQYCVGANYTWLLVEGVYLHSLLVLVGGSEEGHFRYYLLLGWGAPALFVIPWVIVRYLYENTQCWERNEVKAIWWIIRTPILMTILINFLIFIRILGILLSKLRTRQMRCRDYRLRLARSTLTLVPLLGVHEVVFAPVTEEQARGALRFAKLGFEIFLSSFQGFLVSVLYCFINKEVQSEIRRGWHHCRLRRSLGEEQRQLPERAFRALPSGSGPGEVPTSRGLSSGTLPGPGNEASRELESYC

GIP receptor [2] = molecular target: T1, GIP receptor; assay: HitHunter cAMP assay, GIP receptor; settings: for EC50: CHO cells stably expressing GIP receptor, cAMP accumulation, 30 min, read-out: EC50 GIP-1R; for Emax: CHO cells, cAMP, normalized to maximum signal from GIP (high) and DMSO (low), read-out: Emax GIP-1R
GLP-1 receptor [3] = molecular target: T2, GLP-1 receptor (Homo sapiens, UniProt P43220); assay: PathHunter β-arrestin assay, GLP-1 receptor; set-up: host or cells: PathHunter CHO-K1 GLP1R β-Arrestin Cell Line; settings: β-arrestin-2 recruitment, PathHunter CHO-K1 GLP1R β-Arrestin Cell Line, 90 min at 37° C.; normalized to GLP-1; read-out: GLP-1R β Arrestin EC50
GLP-1 receptor [4] = molecular target: T2, GLP-1 receptor; assay: HitHunter cAMP assay, GLP-1 receptor; settings: for EC50: CHO cells stably expressing human GLP-1 receptor, cAMP accumulation, 30 min, read-out: EC50 GLP-1R; for Emax: CHO cells, cAMP, normalized to maximum signal from GLP-1 (high) and DMSO (low), read-out: Emax GLP-1R

T2 sequence (P43220 24-463): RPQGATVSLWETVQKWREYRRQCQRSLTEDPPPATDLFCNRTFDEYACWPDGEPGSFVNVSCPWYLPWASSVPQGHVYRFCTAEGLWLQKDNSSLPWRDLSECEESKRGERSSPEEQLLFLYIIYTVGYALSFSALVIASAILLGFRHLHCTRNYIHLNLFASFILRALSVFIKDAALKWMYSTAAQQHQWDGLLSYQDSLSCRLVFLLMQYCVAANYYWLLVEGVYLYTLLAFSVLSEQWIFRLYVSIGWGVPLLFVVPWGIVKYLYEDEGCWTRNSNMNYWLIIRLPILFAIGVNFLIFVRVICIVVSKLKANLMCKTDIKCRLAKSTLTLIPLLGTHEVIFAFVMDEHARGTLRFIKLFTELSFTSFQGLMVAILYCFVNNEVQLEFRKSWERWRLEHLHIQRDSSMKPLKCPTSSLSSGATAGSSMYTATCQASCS

## CC[C@H](C)[C@H](NC(=O)[C@H](CC(C)C)NC(=O)[C@H](Cc1c[nH]c2ccccc12)NC(=O)[C@H](CCC(N)=O)NC(=O)[C@@H](NC(=O)[C@H](Cc1ccccc1)NC(=O)[C@H](C)NC(=O)[C@H](CCCCNC(=O)COCCOCCNC(=O)COCCOCCNC(=O)CC[C@H](NC(=O)CCCCCCCCCCCCCCCCCCC(=O)O)C(=O)O)NC(=O)[C@H](CCC(N)=O)NC(=O)[C@H](C)NC(=O)[C@@H](NC(=O)[C@H](CCCCN)NC(=O)[C@H](CC(=O)O)NC(=O)[C@H](CC(C)C)NC(=O)C(C)(C)NC(=O)[C@@H](NC(=O)[C@H](CO)NC(=O)[C@H](Cc1ccc(O)cc1)NC(=O)[C@H](CC(=O)O)NC(=O)[C@H](CO)NC(=O)[C@@H](NC(=O)[C@](C)(Cc1ccccc1F)NC(=O)[C@@H](NC(=O)CNC(=O)[C@H](CCC(=O)O)NC(=O)CCNC(=O)C1(c2cccc(Cl)c2)CCCC1)[C@@H](C)O)[C@@H](C)O)[C@@H](C)CC)[C@@H](C)CC)C(C)C)C(=O)N[C@@H](C)C(=O)NCC(=O)NCC(=O)N1CCC[C@H]1C(=O)N[C@@H](CO)C(=O)N[C@@H](CO)C(=O)NCC(=O)N[C@@H](C)C(=O)N1CCC[C@H]1C(=O)N1CCC[C@H]1C(=O)N1CCC[C@H]1C(=O)N[C@@H](CO)C(N)=O [Compound 179] ({X62-βAla}-EGT[αMePhe(2-F)]TSDYSI[Aib]LDKIAQK([AEEA-AEEA-γGlu-C20 diacid])AFVQWLIAGGPSSGAPPPS-NH2)
GIP receptor [1]
  EC50: < 1000 nM
GIP receptor [2]
  EC50: 0.1 to 1 nM
  Emax: 106%
GLP-1 receptor [3]
  EC50: > 1000 nM
GLP-1 receptor [4]
  EC50: 0.1 to 1 nM
  Emax: 100%

## CC[C@H](C)[C@H](NC(=O)[C@H](CC(C)C)NC(=O)[C@H](Cc1c[nH]c2ccccc12)NC(=O)[C@H](CCC(N)=O)NC(=O)[C@@H](NC(=O)[C@H](Cc1ccccc1)NC(=O)[C@H](C)NC(=O)[C@H](CCCCNC(=O)COCCOCCNC(=O)COCCOCCNC(=O)CC[C@H](NC(=O)CCCCCCCCCCCCCCCCCCC(=O)O)C(=O)O)NC(=O)[C@H](CCC(N)=O)NC(=O)[C@H](C)NC(=O)[C@@H](NC(=O)[C@H](CCCCN)NC(=O)[C@H](CC(=O)O)NC(=O)[C@H](CC(C)C)NC(=O)C(C)(C)NC(=O)[C@@H](NC(=O)[C@H](CO)NC(=O)[C@H](Cc1ccc(O)cc1)NC(=O)[C@H](CC(=O)O)NC(=O)[C@H](CO)NC(=O)[C@@H](NC(=O)[C@H](Cc1ccccc1)NC(=O)[C@@H](NC(=O)CNC(=O)[C@H](CCC(=O)O)NC(=O)CCNC(=O)C(C)(C)c1cccc(F)c1)[C@@H](C)O)[C@@H](C)O)[C@@H](C)CC)[C@@H](C)CC)C(C)C)C(=O)N[C@@H](C)C(=O)NCC(=O)NCC(=O)N1CCC[C@H]1C(=O)N[C@@H](CO)C(=O)N[C@@H](CO)C(=O)NCC(=O)N[C@@H](C)C(=O)N1CCC[C@H]1C(=O)N1CCC[C@H]1C(=O)N1CCC[C@H]1C(=O)N[C@@H](CO)C(N)=O [Compound 240] ({X2-βAla}-EGTFTSDYSI[Aib]LDKIAQK([AEEA-AEEA-γGlu-C20 diacid])AFVQWLIAGGPSSGAPPPS-NH2)
GIP receptor [1]
  EC50: < 1000 nM
GIP receptor [2]
  EC50: 1 to 10 nM
  Emax: 95%
GLP-1 receptor [3]
  EC50: < 1000 nM
GLP-1 receptor [4]
  EC50: < 0.1 nM
  Emax: 93%

## CC[C@H](C)[C@H](NC(=O)[C@H](CC(C)C)NC(=O)[C@H](Cc1c[nH]c2ccccc12)NC(=O)[C@H](CCC(N)=O)NC(=O)[C@@H](NC(=O)[C@H](Cc1ccccc1)NC(=O)[C@H](C)NC(=O)[C@H](CCCCNC(=O)COCCOCCNC(=O)COCCOCCNC(=O)CC[C@H](NC(=O)CCCCCCCCCCCCCCCCCCC(=O)O)C(=O)O)NC(=O)[C@H](C)NC(=O)[C@H](C)NC(=O)[C@@H](NC(=O)[C@H](CCCCN)NC(=O)[C@H](CC(=O)O)NC(=O)[C@H](CC(C)C)NC(=O)C(C)(C)NC(=O)[C@@H](NC(=O)[C@H](CO)NC(=O)[C@H](Cc1ccc(O)cc1)NC(=O)[C@H](CC(=O)O)NC(=O)[C@H](CO)NC(=O)[C@@H](NC(=O)[C@H](Cc1ccccc1)NC(=O)[C@@H](NC(=O)CNC(=O)[C@H](CCC(=O)O)NC(=O)CCNC(=O)C(C)(C)c1cc(F)cc(C#N)c1)[C@@H](C)O)[C@@H](C)O)[C@@H](C)CC)[C@@H](C)CC)C(C)C)C(=O)N[C@@H](C)C(=O)NCC(=O)NCC(=O)N1CCC[C@H]1C(=O)N[C@@H](CO)C(=O)N[C@@H](CO)C(=O)NCC(=O)N[C@@H](C)C(=O)N1CCC[C@H]1C(=O)N1CCC[C@H]1C(=O)N1CCC[C@H]1C(=O)N[C@@H](CO)C(N)=O [Compound 183] ({Isobutyryl(2-(3-CN-5-F-Ph))-βAla}-EGTFTSDYSI[Aib]LDKIAAK([AEEA-AEEA-γGlu-C20 diacid])AFVQWLIAGGPSSGAPPPS-NH2)
GIP receptor [1]
  EC50: > 1000 nM
GIP receptor [2]
  EC50: 10 to 100 nM
  Emax: 95%
GLP-1 receptor [3]
  EC50: > 1000 nM
GLP-1 receptor [4]
  EC50: 0.1 to 1 nM
  Emax: 96%

## CC[C@H](C)[C@H](NC(=O)[C@H](CC(C)C)NC(=O)[C@H](Cc1c[nH]c2ccccc12)NC(=O)[C@H](CCC(N)=O)NC(=O)[C@@H](NC(=O)[C@H](Cc1ccccc1)NC(=O)[C@H](C)NC(=O)[C@H](CCCCNC(=O)COCCOCCNC(=O)COCCOCCNC(=O)CC[C@H](NC(=O)CCCCCCCCCCCCCCCCCCC(=O)O)C(=O)O)NC(=O)[C@H](CCC(N)=O)NC(=O)[C@H](C)NC(=O)[C@@H](NC(=O)[C@H](CCCCN)NC(=O)[C@H](CC(=O)O)NC(=O)[C@H](CC(C)C)NC(=O)C(C)(C)NC(=O)[C@@H](NC(=O)[C@H](CO)NC(=O)[C@H](Cc1ccc(O)cc1)NC(=O)[C@H](CC(=O)O)NC(=O)[C@H](CO)NC(=O)[C@@H](NC(=O)[C@H](Cc1ccccc1)NC(=O)[C@@H](NC(=O)CNC(=O)[C@H](CCC(=O)O)NC(=O)CCNC(=O)C(C)(C)c1ccc(Cl)cc1)[C@@H](C)O)[C@@H](C)O)[C@@H](C)CC)[C@@H](C)CC)C(C)C)C(=O)N[C@@H](C)C(=O)NCC(=O)NCC(=O)N1CCC[C@H]1C(=O)N[C@@H](CO)C(=O)N[C@@H](CO)C(=O)NCC(=O)N[C@@H](C)C(=O)N1CCC[C@H]1C(=O)N1CCC[C@H]1C(=O)N1CCC[C@H]1C(=O)N[C@@H](CO)C(N)=O [Compound 185] ({X3-βAla}-EGTFTSDYSI[Aib]LDKIAQK([AEEA-AEEA-γGlu-C20 diacid])AFVQWLIAGGPSSGAPPPS-NH2)
GIP receptor [1]
  EC50: > 1000 nM
GIP receptor [2]
  EC50: 10 to 100 nM
  Emax: 95%
GLP-1 receptor [3]
  EC50: < 1000 nM
GLP-1 receptor [4]
  EC50: 0.1 to 1 nM
  Emax: 101%

## CC[C@H](C)[C@H](NC(=O)[C@H](CC(C)C)NC(=O)[C@H](Cc1c[nH]c2ccccc12)NC(=O)[C@H](CCC(N)=O)NC(=O)[C@@H](NC(=O)[C@H](Cc1ccccc1)NC(=O)[C@H](C)NC(=O)[C@H](CCCCNC(=O)COCCOCCNC(=O)COCCOCCNC(=O)CC[C@H](NC(=O)CCCCCCCCCCCCCCCCCCC(=O)O)C(=O)O)NC(=O)[C@H](CCC(N)=O)NC(=O)[C@H](C)NC(=O)[C@@H](NC(=O)[C@H](CCCCN)NC(=O)[C@H](CC(=O)O)NC(=O)[C@H](CC(C)C)NC(=O)C(C)(C)NC(=O)[C@@H](NC(=O)[C@H](CO)NC(=O)[C@H](Cc1ccc(O)cc1)NC(=O)[C@H](CC(=O)O)NC(=O)[C@H](CO)NC(=O)[C@@H](NC(=O)[C@H](Cc1ccccc1)NC(=O)[C@@H](NC(=O)CNC(=O)[C@H](CCC(=O)O)NC(=O)CCNC(=O)C(F)(F)c1ccc(F)cc1)[C@@H](C)O)[C@@H](C)O)[C@@H](C)CC)[C@@H](C)CC)C(C)C)C(=O)N[C@@H](C)C(=O)NCC(=O)NCC(=O)N1CCC[C@H]1C(=O)N[C@@H](CO)C(=O)N[C@@H](CO)C(=O)NCC(=O)N[C@@H](C)C(=O)N1CCC[C@H]1C(=O)N1CCC[C@H]1C(=O)N1CCC[C@H]1C(=O)N[C@@H](CO)C(N)=O [Compound 188] ({X4-βAla}-EGTFTSDYSI[Aib]LDKIAQK([AEEA-AEEA-γGlu-C20 diacid])AFVQWLIAGGPSSGAPPPS-NH2)
GIP receptor [1]
  EC50: > 1000 nM
GIP receptor [2]
  EC50: 10 to 100 nM
  Emax: 79%
GLP-1 receptor [3]
  EC50: > 1000 nM
GLP-1 receptor [4]
  EC50: 0.1 to 1 nM
  Emax: 91%
